Read-outs that look alike come from different tables or passages of the source.
Legend:
[1] = cited from earlier work
[2] = reported by EP 965 343; cited from earlier work
[3] = particles having diameter lower than or equal to 85 μm, aqueous solutions at physiological pH, EP 965 343; cited from earlier work
[4] = water solubility; format: physicochemical; settings: particles having mean diameter D[4,3] higher than 85 μm
[5] = hygroscopicity / absorption of atmospheric humidity (water content by Karl-Fischer); format: physicochemical; settings: particles having mean diameter D[4,3] higher than 85 μm (150 μm vs known 50 μm sample, 25° C., 50% relative humidity, FIG. 2)
Description: The samples water content was determined by the known Karl—Fischer technique. “Approximatively” and “about” herein mean around ±10% of the indicated value.

[6] = cited from earlier work; remark: listed apart in the source

| SMILES | permeability through biological membranes [1] | water solubility [2] | amount of the compound that dissolves within 45 minutes [3] | water solubility [4] | resistance to absorption of atmospheric humidity ([5]; listed as Anhydrous ziprasidone hydrochloride) | resistance to absorption of atmospheric humidity ([5]; hydrochloride) | hygroscopicity ([6]; exposed to air, spontaneously converts to the hydrate form) | hygroscopicity ([6]; particles with diameter lower than or equal to 85 μm) |
| --- | --- | --- | --- | --- | --- | --- | --- | --- |
| Cl.O=C1Cc2cc(CCN3CCN(c4nsc5ccccc45)CC3)c(Cl)cc2N1 [ziprasidone hydrochloride, 5-(2-(4-(1,2-benzisothiazol-3-yl)-1-piperazinyl)-ethyl)-6-chloro-1,3-dihydro-2H-indol-2-one hydrochloride] | high permeability | sparingly water-soluble | at least 70% | – | – | – | – | – |
| Cl.O=C1Cc2cc(CCN3CCN(c4nsc5ccccc45)CC3)c(Cl)cc2N1 [anhydrous ziprasidone hydrochloride] | – | – | – | substantially unchanged | higher resistance to the absorption of atmospheric humidity | improved resistance to atmospheric humidity | highly hygroscopic | high hygroscopicity |

From US7563794B2, “Ziprasidone free from colored impurities and a process for its preparation” (Dipharma Francis S.r.l., priority 2005, dated 2009)
